{"source": "patent US9963461B2", "about": "“Phillygenin ibuprofen ester, preparation method therefor, and application thereof” (priority 2014, dated 2018)", "key": {"parainfluenza virus": {"tested_on": "parainfluenza virus", "experiment": "Impact of the drugs on the virus-induced cytopathy (MTT)", "format": "cell-based", "settings": "parainfluenza virus 100 TCID50, Vero cells, about the maximal non-cytotoxic concentration, 72 hours"}, "[1]": {"tested_on": "Coxsackie virus A16 (CoxA16)", "experiment": "Impact of the drugs on the virus-induced cytopathy (MTT)", "format": "cell-based", "settings": "CoxA16 100 TCID50, Vero cells, about the maximal non-cytotoxic concentration, 72 hours"}, "[2]": {"tested_on": "respiratory syncytial virus (RSV)", "experiment": "Impact of the drugs on the virus-induced cytopathy (MTT)", "format": "cell-based", "settings": "RSV 100 TCID50, Vero cells, about the maximal non-cytotoxic concentration, 72 hours"}, "[3]": {"tested_on": "coxsackie virus B3 (CVB3)", "experiment": "Impact of the drugs on the virus-induced cytopathy (MTT)", "format": "cell-based", "settings": "CVB3 100 TCID50, Vero cells, about the maximal non-cytotoxic concentration, 72 hours"}, "influenza virus": {"tested_on": "influenza virus", "experiment": "Impact of the drugs on the virus-induced cytopathy (MTT)", "format": "cell-based", "settings": "influenza virus 100 TCID50, Vero cells, about the maximal non-cytotoxic concentration, 72 hours"}, "Adenovirus (AdV)": {"tested_on": "Adenovirus (AdV)", "experiment": "Impact of the drugs on the virus-induced cytopathy (MTT)", "format": "cell-based", "settings": "ADV 100 TCID50, Vero cells, about the maximal non-cytotoxic concentration, 72 hours"}, "Enterovirus EV71": {"tested_on": "Enterovirus EV71", "experiment": "Impact of the drugs on the virus-induced cytopathy (MTT)", "format": "cell-based", "settings": "EV71 100 TCID50, Vero cells, about the maximal non-cytotoxic concentration, 72 hours"}, "[4]": {"tested_on": "sweat gland epithelial cells at the rat toe part", "experiment": "Sweat secretion of rat paw part (tissue morphology observation method)", "format": "in vivo, Wistar rats", "settings": "rat toe part; 300.0 mg/kg intragastric", "from_the_text": "This test was based on the mechanism that when rat sweat gland is excited, in addition to sweat secretion increase, the morphology of sweat gland epithelial cell is also changed. The number increase and expansion of empty cells of the sweat gland epithelial cells can be seen under the optical microscope. Such enlarged vacuole presents mitochondrial in sweat gland epithelial cells swelling, rupture, fusion and secretory vesicle enlargement under the electron microscope, and through the morphological observation of the sweat gland epithelial cell at the rat paw part, the secretory activity of the sweat gland can be known. In the test, 70 Wistar rats were selected, with equal male and female number, weighing 120-160 g. […] Besides that subcutaneous injection was used for the pilocarpine solution, intragastric administration was used for all the other groups."}, "[5]": {"tested_on": "rat toe swelling induced by carrageenan", "experiment": "Rat toe swelling induced by carrageenan", "format": "in vivo, Wistar rats", "settings": "300 mg/kg sublingual intravenous injection", "experimental": "The test groups were administered by sublingual intravenous injection. Before the test, capillary magnification measurement method was used to measure the normal volume of the right hind foot of the rats in each group. To avoid errors, the measurement location was fixed and the operation was made by one person both before and after the administration. The average value of the two measurements was taken as the normal volume of the right hind foot of the rats before administration. […] The difference between the groups was compared by inter-group t test processing through the difference percentage (swelling ratio) of the paw volume before and after the induced rat inflammation."}, "[6]": {"tested_on": "Herpes Simplex Virus type I (HSV-1)", "experiment": "Impact of the drugs on the virus-induced cytopathy (MTT)", "format": "cell-based", "settings": "HSV-I 100 TCID50, Vero cells, about the maximal non-cytotoxic concentration, 72 hours"}, "[7]": {"tested_on": "beer yeast induced rat fever", "experiment": "Beer yeast induced rat fever", "format": "in vivo, Wistar rats", "settings": "300 mg/kg", "experimental": "Male Wistar rats were selected, weighing 180-200 g. Before the test, WSC-411P portable digital thermometer was used to measure the normal rectal temperature twice (with certain interval for each time), and the average value of the two measurements was taken as the normal body temperature of the rat. Then 70 rats with the body temperature between 36.5° C. and 38° C. were chosen to be randomly divided into 7 groups by weight: the model (0.5% carboxymethylcellulose) group, the 2.5, 5, and 10 mg/kg phillygenin ibuprofen ester groups, the positive drug paracetamol (100 mg/kg) group, the ibuprofen group (i.e. prodrug control group, 300 mg/kg), the phillygenin group (100 mg/kg), with 10 rats for each group. Each group of rats were subjected to back subcutaneous injection with 10% fresh beer yeast suspension of 10 ml/kg to induce heat. After administration of 10% fresh beer yeast suspension for 6.0 h, phillygenin ibuprofen ester and paracetamol were both subjected to intragastric administration, and the model group was intragastrically administrated with equal volume of 0.5% carboxymethylcellulose. Rectal temperature was measured after 1 h, 2 h, 3 h and 4 h of the administration respectively. Changes in the body temperature were observed and difference between the groups was compared by inter-group t test processing through antipyretic percentage."}}, "note": "Marks after values point to notes of the source that are not given here."}
{"molecule": "CC(C)Cc1ccc(C(C)C(=O)O)cc1", "note": "(stereo not shown) [Ibuprofen]", "values": [{"measurement": "antiviral effective rate (ER %)", "setting": "parainfluenza virus", "value": "80.72** %"}, {"measurement": "antiviral effective rate (ER %)", "setting": "[1]", "value": 50.04, "unit": "%"}, {"measurement": "antiviral effective rate (ER %)", "setting": "[2]", "value": "80.88** %"}, {"measurement": "antiviral effective rate (ER %)", "setting": "[3]", "value": 50.89, "unit": "%"}, {"measurement": "antiviral effective rate (ER %)", "setting": "influenza virus", "value": "75.35** %"}, {"measurement": "antiviral effective rate (ER %)", "setting": "Adenovirus (AdV)", "value": 50.61, "unit": "%"}, {"measurement": "antiviral effective rate (ER %)", "setting": "Enterovirus EV71", "value": "75.86** %"}, {"measurement": "Number of sweat glands of vacuole", "setting": "[4]", "value": 57}, {"measurement": "Void fraction (%)", "setting": "[4]", "value": "27.40*** %"}, {"measurement": "Swelling ratio (%)", "setting": "[5]; 30 min", "value": "0.110 ± 0.119", "unit": "%"}, {"measurement": "Swelling ratio (%)", "setting": "[5]; 60 min", "value": "0.151 ± 0.172", "unit": "%"}, {"measurement": "Swelling ratio (%)", "setting": "[5]; 120 min", "value": "0.210 ± 0.178", "unit": "%"}, {"measurement": "Swelling ratio (%)", "setting": "[5]; 180 min", "value": "0.330 ± 0.337", "unit": "%"}, {"measurement": "Swelling ratio (%)", "setting": "[5]; 240 min", "value": "0.4600 ± 0.289", "unit": "%"}, {"measurement": "Swelling ratio (%)", "setting": "[5]; 300 min", "value": "0.681 ± 0.369", "unit": "%"}, {"measurement": "Swelling ratio (%)", "setting": "[5]; 360 min", "value": "0.623 ± 0.338", "unit": "%"}, {"measurement": "antiviral effective rate (ER %)", "setting": "[6]", "value": "84.30** %"}, {"measurement": "Body temperature (° C.)", "setting": "[7]; 1 h after administration", "value": "39.21 ± 0.11", "unit": "°C"}, {"measurement": "antipyretic percentage (%)", "setting": "[7]; 1 h after administration", "value": "−1.05 ± 0.54", "unit": "%"}, {"measurement": "Body temperature (° C.)", "setting": "[7]; 2 h after administration", "value": "38.92 ± 0.35", "unit": "°C"}, {"measurement": "antipyretic percentage (%)", "setting": "[7]; 2 h after administration", "value": "−1.7 ± 0.77", "unit": "%"}, {"measurement": "Body temperature (° C.)", "setting": "[7]; 3 h after administration", "value": "38.71 ± 0.20", "unit": "°C"}, {"measurement": "antipyretic percentage (%)", "setting": "[7]; 3 h after administration", "value": "−2.32 ± 1.41", "unit": "%"}, {"measurement": "Body temperature (° C.)", "setting": "[7]; 4 h after administration", "value": "38.49 ± 0.51", "unit": "°C"}, {"measurement": "antipyretic percentage (%)", "setting": "[7]; 4 h after administration", "value": "−2.88 ± 1.50", "unit": "%"}]}
